{"source": "patent US20070190039A1", "about": "“Novel cell lines, and methods of preparation and use thereof” (priority 2003, published 2007)", "tested_on": "voltage-gated calcium current in HN2A12 cells", "assay_type": "cell-based, murine", "data": [{"molecule": "ω-conotoxin-GVIA", "values": [{"measurement": "block of the calcium current (N-type part)", "result": "about 38%"}]}, {"molecule": "[Cl][Cd][Cl]", "note": "[CdCl2]", "values": [{"measurement": "inhibition of the voltage-gated calcium current", "result": "completely inhibited"}]}]}
